Test results: US20250270180A1, “MEK INHIBITORS AND THERAPEUTIC USES THEREOF” (Immuneering Corporation, priority 2020, published 2025)
Where two headings read alike, the source gives them in different places.

Assays:
CYP450 2D6 = CYP450 2D6 (Homo sapiens, UniProt P10635); test: CYP450 panel, 2D6; conditions: 10 μM; substrate dextromethophan
CYP450 2C19 = CYP450 2C19 (Homo sapiens, UniProt P33261); test: CYP450 panel, 2C19; conditions: 10 μM; substrate mephenytoin
CYP450 1A2 = molecular target: T1, CYP450 1A2 (Homo sapiens, UniProt P05177); test: CYP450 panel, 1A2; format: in vitro ADME; conditions: 10 μM; substrate phenacetin
T1 sequence (P05177 1-516): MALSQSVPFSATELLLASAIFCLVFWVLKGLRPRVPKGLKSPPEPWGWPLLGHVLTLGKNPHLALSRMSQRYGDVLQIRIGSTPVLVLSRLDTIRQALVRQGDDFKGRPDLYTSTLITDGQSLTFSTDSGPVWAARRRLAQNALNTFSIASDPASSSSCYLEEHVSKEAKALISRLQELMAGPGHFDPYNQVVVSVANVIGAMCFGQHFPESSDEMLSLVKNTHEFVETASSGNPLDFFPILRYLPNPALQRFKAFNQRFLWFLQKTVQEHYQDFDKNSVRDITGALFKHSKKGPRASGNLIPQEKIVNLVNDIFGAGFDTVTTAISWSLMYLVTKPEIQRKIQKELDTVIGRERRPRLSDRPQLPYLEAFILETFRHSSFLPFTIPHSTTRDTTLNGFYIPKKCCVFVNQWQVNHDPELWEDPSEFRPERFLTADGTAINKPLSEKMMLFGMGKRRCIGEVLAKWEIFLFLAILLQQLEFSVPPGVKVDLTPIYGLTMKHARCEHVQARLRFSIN

CYP450 3A4 = CYP450 3A4 (Homo sapiens, UniProt P08684); test: CYP450 panel, 3A4; conditions: 10 μM; for 3A4*: substrate midazolam; for 3A4^: substrate testosterone
Sequence of CYP450 3A4 (P08684 whole entry): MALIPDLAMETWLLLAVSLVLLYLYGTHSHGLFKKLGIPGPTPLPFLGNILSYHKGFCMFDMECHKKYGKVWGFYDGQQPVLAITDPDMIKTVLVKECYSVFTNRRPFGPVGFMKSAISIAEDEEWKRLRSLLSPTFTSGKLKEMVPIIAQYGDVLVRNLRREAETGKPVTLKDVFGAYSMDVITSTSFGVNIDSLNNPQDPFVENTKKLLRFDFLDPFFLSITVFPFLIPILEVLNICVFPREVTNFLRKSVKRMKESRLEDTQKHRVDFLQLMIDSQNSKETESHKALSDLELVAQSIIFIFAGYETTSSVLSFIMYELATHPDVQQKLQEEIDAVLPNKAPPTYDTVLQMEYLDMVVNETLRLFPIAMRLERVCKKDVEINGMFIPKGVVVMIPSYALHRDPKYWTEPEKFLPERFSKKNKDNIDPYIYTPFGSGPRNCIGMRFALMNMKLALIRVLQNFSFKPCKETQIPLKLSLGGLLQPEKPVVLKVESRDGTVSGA

hERG Channel [1] = molecular target: T2, hERG Channel (Homo sapiens, UniProt Q12809); test: in vitro
T2 sequence (Q12809 whole entry): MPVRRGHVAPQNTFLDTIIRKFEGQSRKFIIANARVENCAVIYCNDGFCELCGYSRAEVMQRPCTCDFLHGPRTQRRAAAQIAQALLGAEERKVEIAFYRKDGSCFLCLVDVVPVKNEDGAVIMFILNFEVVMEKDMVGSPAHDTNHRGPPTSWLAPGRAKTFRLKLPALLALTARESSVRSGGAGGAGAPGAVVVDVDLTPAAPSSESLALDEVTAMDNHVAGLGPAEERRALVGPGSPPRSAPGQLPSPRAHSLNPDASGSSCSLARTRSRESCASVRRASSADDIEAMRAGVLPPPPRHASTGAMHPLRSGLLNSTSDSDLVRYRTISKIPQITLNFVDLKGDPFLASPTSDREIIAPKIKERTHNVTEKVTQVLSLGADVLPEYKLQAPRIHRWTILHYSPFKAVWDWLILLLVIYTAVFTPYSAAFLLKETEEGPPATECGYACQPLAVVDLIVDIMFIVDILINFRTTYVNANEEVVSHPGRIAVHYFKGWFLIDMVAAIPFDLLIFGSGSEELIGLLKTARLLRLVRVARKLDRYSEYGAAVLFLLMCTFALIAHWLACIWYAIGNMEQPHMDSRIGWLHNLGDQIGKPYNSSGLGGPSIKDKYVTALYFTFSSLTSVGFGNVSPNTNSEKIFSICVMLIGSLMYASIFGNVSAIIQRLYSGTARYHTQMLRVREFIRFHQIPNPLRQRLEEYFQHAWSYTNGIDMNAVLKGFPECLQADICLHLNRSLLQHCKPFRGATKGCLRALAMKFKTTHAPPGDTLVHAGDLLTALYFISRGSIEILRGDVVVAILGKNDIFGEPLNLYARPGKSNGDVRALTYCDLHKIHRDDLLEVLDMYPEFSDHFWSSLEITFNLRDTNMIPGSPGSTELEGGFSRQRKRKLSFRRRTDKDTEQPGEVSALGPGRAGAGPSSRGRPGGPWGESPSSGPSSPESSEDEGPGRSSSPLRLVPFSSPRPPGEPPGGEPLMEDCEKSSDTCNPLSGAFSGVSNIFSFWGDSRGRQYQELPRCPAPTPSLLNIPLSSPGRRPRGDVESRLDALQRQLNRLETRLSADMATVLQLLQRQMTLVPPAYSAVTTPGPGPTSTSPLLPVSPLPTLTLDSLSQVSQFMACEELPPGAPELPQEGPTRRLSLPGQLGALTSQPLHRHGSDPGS

CYP450 2C8 = molecular target: T3, CYP450 2C8 (Homo sapiens, UniProt P10632); test: CYP450 panel, 2C8; conditions: 10 μM; substrate amodiaquine
T3 sequence (P10632 1-490): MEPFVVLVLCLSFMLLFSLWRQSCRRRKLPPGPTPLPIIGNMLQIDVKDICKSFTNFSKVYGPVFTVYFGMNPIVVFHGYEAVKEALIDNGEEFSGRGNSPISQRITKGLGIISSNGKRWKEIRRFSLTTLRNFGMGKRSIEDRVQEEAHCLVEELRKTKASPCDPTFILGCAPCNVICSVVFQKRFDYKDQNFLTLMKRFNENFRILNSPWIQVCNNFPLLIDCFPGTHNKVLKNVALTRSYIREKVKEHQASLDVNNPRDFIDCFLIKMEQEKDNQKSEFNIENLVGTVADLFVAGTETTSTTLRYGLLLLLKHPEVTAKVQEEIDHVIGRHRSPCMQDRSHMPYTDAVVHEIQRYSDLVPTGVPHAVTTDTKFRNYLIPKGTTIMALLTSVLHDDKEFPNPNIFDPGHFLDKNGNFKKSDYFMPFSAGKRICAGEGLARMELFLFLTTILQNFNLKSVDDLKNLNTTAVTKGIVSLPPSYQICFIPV

[2] = Plasma stability, CD-1 mouse; format: in vitro ADME; conditions: 2 μM
CYP450 2B6 = molecular target: T4, CYP450 2B6 (Homo sapiens, UniProt P20813); test: CYP450 panel, 2B6; conditions: 10 μM; substrate bupropion
T4 sequence (P20813 1-491): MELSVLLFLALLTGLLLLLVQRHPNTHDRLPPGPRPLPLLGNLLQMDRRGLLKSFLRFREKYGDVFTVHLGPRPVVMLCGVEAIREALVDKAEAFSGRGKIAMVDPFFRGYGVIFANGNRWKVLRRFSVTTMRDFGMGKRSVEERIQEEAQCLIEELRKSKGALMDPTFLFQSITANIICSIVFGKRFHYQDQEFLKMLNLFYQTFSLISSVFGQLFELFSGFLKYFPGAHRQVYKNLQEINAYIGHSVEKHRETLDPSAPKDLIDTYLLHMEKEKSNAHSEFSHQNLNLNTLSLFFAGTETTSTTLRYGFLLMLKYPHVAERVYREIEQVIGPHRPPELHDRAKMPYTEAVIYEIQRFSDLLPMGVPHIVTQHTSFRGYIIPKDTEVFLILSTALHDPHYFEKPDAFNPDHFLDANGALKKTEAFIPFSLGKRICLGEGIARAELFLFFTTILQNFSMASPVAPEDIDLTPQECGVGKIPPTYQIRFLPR

[3] = Microsome stability, beagle dog; format: in vitro ADME; conditions: microsomes, 2 μM
[4] = Microsome stability, human; format: in vitro ADME; conditions: microsomes, 2 μM
Plasma stability, human = format: in vitro ADME; conditions: 2 μM
CYP450 2C9 = CYP450 2C9 (Homo sapiens, UniProt P11712); test: CYP450 panel, 2C9; conditions: 10 μM; substrate Diclofenac
Sequence of CYP450 2C9 (P11712 whole entry): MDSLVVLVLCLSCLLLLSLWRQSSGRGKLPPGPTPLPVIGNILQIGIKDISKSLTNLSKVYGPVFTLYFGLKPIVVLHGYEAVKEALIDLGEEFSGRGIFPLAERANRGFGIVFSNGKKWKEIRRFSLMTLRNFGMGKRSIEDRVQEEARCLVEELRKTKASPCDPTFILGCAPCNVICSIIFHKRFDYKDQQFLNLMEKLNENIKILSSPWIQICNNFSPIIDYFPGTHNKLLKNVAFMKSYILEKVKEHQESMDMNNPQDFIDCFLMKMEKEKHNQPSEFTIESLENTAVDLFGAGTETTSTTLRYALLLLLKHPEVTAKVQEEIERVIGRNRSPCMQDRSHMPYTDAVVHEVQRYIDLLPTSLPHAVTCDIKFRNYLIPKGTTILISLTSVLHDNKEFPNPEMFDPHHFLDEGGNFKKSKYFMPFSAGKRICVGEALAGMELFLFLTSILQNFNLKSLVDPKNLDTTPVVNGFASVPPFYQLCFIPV

[5] = Plasma stability, beagle dog; format: in vitro ADME; conditions: 2 μM
[6] = Microsome stability, CD-1 mouse; conditions: microsomes, 2 μM
hERG Channel [7] = molecular target: T2, hERG Channel; test: cell-based
[8] = Absorption & efflux: Caco-2 permeability; conditions: human
A549 pERK = test: A549-pERK, 2 h (quantitative Western, Jess); format: cell-based; conditions: Homo sapiens, A549, 2 h, phospho:total ratio normalized to DMSO control; for activity at 0.01 µM: 10 nM
Method in brief: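 Cells treated in duplicate for 2 h with compound, lysed and protein-normalised (1 mg/mL pERK, 1.5 mg/mL pMEK). Quantitative capillary Western; phospho/total protein ratio normalised to DMSO.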

[9] = tested on: A549 CRAF BP (MEK phosphorylation); test: A549-CRAF BP 100 nM, 2 h (pMEK); format: cell-based; conditions: Homo sapiens, A549, 2 h, phospho:total ratio normalized to DMSO control
Protocol: A549 or […] cells were treated in duplicate for two hours with compounds at varying concentrations. After two hours, the cells were lysed, snap frozen, and stored at −80° C. After storage, the lysate was quantified with the Bradford assay. Before the lysates were prepared to run on the Jess, the lysates were diluted to 1 mg/mL for pERK analysis and 1.5 mg/mL pMEK analysis using quantitative Western blotting. ERK and MEK phosphorylation levels were estimated by taking the ratio of phospho-protein to total protein and normalizing to the DMSO control. The results of this study are described in Tables 14-16.

[10] = Pharmacokinetics, single dose, 2-hour tissue levels in Colon26 tumor bearing mice; format: in vivo; conditions: female, athymic BALB/c nude or BALB/c, mouse, po, single dose 100 mg/kg p.o., 2-hour post dose
Protocol: Female mice (either athymic BALC/c nude, or BALB/c mice) were inoculated with a single subcutaneous injection of 0.2 ml of mouse Colon-26 cell suspension (1×10^5 cells per animal) in the inguinal region. Colon26 (C26) tumor bearing mice received a single dose (3 mice/treatment) of vehicle (10% DMSO/90% [20% SBE-β-CD in saline], pH 5) containing compounds at 100 mg/kg by gavage (p.o.) and 2-hour post dose humanely euthanized.
Blood was obtained through cardiac puncture into K+EDTA tubes, mixed by inversion and centrifuged to obtain the plasma. Tissues were excised, cleaned of surrounding tissues. All samples immediately snap frozen in liquid N2 prior to LC-MS/MS analysis (using Waters HSS T3 2.1×50 mm (1.8 um) LC column, and an API-6500 Electrospray MS unit).

[11] = tested on: A549 (KRAS G12S) pERK: total ERK; test: Phospho-ERK screen in A549 (KRAS G12S); format: cell-based; conditions: 10 μM for 2 hours; for activity at 10 µM: Homo sapiens, A549, 2 h, read-out: pERK: total ERK (% relative to vehicle)
Protocol: Materials and Methods: A549 or A375 cells were seeded in 6-well plates at an appropriate seeding density on day 0. On day 2 or 3, after checking the health and confluency of cells, the media was aspirated and replaced with 1 mL media containing a predetermined concentration of compound and incubated for 2 hours. After 2 hours, the media was aspirated, and the cells washed 2 times with cold PBS. Cells were lysed on ice, with 50 uL 1×CST lysis buffer+1 mM PMSF for 5 minutes. After 5 minutes, cells were removed using a scraper and transferred to cold 1.5 mL tubes, and centrifuged for 10 min, 4° C., 14,000×g. Supernatant was gently removed and snap frozen in liquid nitrogen. Protein concentration of the lysate was determined using Bradford Reagent (analyzed using SpectraMax M2E) and diluted to 1 mg/mL or pERK or 1.5 mg/mL for pMEK analysis. Cell lysates were then analyzed for phosphor-ERK/total-ERK levels on a Jess system (ProteinSimple; Cat #JS3346) using the following antibodies: tERK1/2 (CST 4696; 1:50) and pERK1/2 (CST 4377; 1:50). For pMEK/tMEK, the following antibodies were used: tMEK1/2 (CST 4694; 1:15) and pMEK1/2 (CST 9154; 1:400). All dilutions were in Milk-free antibody diluent.
The results of a phospho-ERK Screen in A549 (KRAS G12S) study is described in Table 7, 7A, 7B, and 8 below.

Sequence of CYP450 2C19 (P33261 whole entry): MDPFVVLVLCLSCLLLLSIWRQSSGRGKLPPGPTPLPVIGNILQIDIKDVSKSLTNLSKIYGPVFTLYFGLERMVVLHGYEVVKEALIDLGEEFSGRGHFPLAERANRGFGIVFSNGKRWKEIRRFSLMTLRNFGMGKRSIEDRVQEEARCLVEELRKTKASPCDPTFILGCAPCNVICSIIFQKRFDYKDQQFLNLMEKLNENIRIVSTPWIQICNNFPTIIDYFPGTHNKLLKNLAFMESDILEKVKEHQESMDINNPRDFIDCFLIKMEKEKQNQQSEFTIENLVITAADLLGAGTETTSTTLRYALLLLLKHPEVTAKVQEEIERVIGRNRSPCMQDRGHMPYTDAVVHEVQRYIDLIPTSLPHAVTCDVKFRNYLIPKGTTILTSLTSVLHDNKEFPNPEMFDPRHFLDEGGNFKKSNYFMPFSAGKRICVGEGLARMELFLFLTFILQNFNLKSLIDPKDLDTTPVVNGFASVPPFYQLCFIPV
Sequence of CYP450 2D6 (P10635 whole entry): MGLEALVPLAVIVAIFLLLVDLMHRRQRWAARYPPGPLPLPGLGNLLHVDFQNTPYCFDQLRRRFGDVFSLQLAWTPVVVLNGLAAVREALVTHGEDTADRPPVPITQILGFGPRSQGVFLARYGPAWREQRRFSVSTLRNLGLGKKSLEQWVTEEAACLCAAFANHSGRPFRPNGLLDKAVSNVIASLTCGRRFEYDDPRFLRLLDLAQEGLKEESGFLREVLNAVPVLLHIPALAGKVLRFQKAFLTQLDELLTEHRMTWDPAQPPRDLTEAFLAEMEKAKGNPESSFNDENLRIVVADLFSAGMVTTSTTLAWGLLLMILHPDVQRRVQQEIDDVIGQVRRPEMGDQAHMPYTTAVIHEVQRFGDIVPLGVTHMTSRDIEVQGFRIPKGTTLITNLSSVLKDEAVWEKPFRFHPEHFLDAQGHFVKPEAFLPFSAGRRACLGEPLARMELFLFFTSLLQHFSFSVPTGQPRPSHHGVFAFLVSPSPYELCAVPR

SMILES | 2D6* (CYP450 2D6) | 2C19* (CYP450 2C19) | 1A2* (CYP450 1A2) | 3A4* (CYP450 3A4) | 3A4^ (CYP450 3A4) | 2C8* (CYP450 2C8) | CD-1 Mouse (% Reamining @2 hour) [2] [%] | 2B6* (CYP450 2B6) | Beagle Dog (% Reamining @1 hour) [3] [%] | Human (% Reamining @1 hour) [4] [%] | Human (% Reamining @2 hour) (Plasma stability, human) [%] | 2C9* (CYP450 2C9) | Beagle Dog (% Reamining @2 hour) [5] [%] | CD-1 Mouse (% Reamining @1 hour) [6] [%] | activity at 0.01 µM (A549 pERK) [%] | activity at 0.1 µM [9] [%] | activity at 10 µM (A549 pERK) [%] | pERK: total ERK (% relative to vehicle) [11] [%] | activity at 10 µM [11] [%] | further results
CNS(=O)(=O)Nc1cccc(Cc2c(C)c3ccc(OC(=O)N(C)C)cc3oc2=O)c1F [Compound 7] | −7.4 | 11.6 | 0.3 | 29.9 | 59.7 | 14.4 | 56.5 | 28.5 | 57.0 | 61.1 | 88.1 | 33.8 | 99.8 | 29.6 | – | – | – | – | – | IC50 (hERG Channel [1]): 28.6 µM
C#CCNCc1c(Cc2cccc(NS(=O)(=O)NC)c2F)c(=O)oc2cc(OC(=O)N(C)C)ccc12 [Compound 14] | 6.6 | 4.0 | 6.3 | 26.7 | 39.3 | 8.4 | 95.0 | 15.6 | 51.6 | 38.1 | 96.0 | 8.2 | 91.2 | 13.2 | 64 | 59.1 | – | – | – | IC50 (hERG Channel [7]): 19.4 µM; Papp B→A at 2 h, 10 μM [8]: 26.1 ×10⁻⁶ cm/s; efflux ratio at 2 h, 10 μM [8]: 2.8; Papp A→B at 2 h, 10 μM ([8]; Caco-2, A-B Permeability Ranking): > 1 ×10⁻⁶ cm/s; Papp A→B at 2 h, 10 μM ([8]; Caco-2, Mean Papp A-B (10^−6 cm/s)): 9.34 ×10⁻⁶ cm/s; concentration at 2 h ([10]; liver, read-out: Liver): 17.8 ng/g; concentration at 2 h ([10]; muscle, read-out: Muscle): 19 ng/g; concentration at 2 h ([10]; plasma, read-out: Plasma): 18.5 ng/mL; concentration at 2 h ([10]; tumor, read-out: Tumor): 2.68 ng/g
CNS(=O)(=O)Nc1cccc(Cc2c(CNC(=O)OCCO)c3ccc(OC(=O)N(C)C)cc3oc2=O)c1F [Compound 106] | – | – | – | – | – | – | – | – | – | – | – | – | – | – | – | – | 27.9 | 27.88 | – | –
CNS(=O)(=O)Nc1cccc(Cc2c(CN3CCNCC3)c3cc(F)c(OC(=O)N(C)C)cc3oc2=O)c1F [Compound 134] | – | – | – | – | – | – | – | – | – | – | – | – | – | – | 33.1 | 26.9 | – | – | 23.4 | –
CNS(=O)(=O)Nc1cccc(Cc2c(CNC(=O)OCCO)c3ccc(OC(=O)N(C)C)cc3oc2=O)c1F [Compound 185] | – | – | – | – | – | – | – | – | – | – | – | – | – | – | – | – | – | 7.39 | – | –
CNS(=O)(=O)Nc1cccc(Cc2c(CNCC(=O)N3CCNCC3)c3ccc(OC(=O)N(C)C)cc3oc2=O)c1F [Compound 191] | – | – | – | – | – | – | – | – | – | – | – | – | – | – | 131 | – | 8.6 | – | 7.34 | –
